Patent publication US11697648B2, “Fused pyrimidine pyridinone compounds as JAK inhibitors” (THERAVANCE BIOPHARMA R&D IP, LLC, priority 2019, dated 2023)

Assays:
[1] = molecular target: JAK1 (Homo sapiens (Human), UniProt P23458); assay: Biochemical JAK1 kinase assay (LanthaScreen)
Summary of the method: (§1)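 GST-JAK + GFP-STAT1 peptide, HEPES pH 7.5/MgCl2/EGTA/Brij-35 buffer; cpd preincubation 1 h RT; ATP start, 1 h RT; stop with 10 mM EDTA + 2 nM Tb-anti-pSTAT1; TR-FRET 520/495. 4-parameter IC50 → pKi (Cheng-Prusoff).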

[2] = molecular target: JAK2 (Homo sapiens (Human), UniProt O60674); assay: Biochemical JAK2 kinase assay (LanthaScreen)
JAK2, sequence (O60674 whole entry): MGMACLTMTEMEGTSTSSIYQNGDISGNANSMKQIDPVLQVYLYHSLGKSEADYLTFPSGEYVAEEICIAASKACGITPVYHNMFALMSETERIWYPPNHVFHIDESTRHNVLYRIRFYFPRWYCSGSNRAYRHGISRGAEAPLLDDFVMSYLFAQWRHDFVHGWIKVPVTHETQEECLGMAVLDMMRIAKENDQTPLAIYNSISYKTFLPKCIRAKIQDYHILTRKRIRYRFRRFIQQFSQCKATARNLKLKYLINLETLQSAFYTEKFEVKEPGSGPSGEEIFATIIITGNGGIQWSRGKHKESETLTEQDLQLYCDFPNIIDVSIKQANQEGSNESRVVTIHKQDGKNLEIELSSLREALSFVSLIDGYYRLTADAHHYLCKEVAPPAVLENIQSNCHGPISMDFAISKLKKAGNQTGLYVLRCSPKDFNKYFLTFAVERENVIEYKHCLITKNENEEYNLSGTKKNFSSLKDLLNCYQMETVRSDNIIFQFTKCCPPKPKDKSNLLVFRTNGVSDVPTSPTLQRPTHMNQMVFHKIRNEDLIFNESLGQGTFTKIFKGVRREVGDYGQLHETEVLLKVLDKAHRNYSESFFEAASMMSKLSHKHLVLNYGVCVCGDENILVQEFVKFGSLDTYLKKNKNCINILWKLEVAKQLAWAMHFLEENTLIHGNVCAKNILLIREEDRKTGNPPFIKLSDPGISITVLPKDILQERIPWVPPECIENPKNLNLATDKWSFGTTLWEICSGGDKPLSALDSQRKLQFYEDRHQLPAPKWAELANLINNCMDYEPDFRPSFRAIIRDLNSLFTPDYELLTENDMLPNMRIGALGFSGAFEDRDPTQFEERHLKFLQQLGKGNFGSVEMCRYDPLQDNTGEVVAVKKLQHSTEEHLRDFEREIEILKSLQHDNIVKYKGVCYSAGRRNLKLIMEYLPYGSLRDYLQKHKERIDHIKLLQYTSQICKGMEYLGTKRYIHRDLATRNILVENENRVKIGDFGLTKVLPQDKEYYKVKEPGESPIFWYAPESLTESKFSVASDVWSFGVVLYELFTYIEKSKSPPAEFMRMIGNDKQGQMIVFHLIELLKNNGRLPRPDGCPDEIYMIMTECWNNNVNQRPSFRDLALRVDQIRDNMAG
Summary of the method: as §1

[3] = molecular target: JAK3 (Homo sapiens (Human), UniProt P52333); assay: Biochemical JAK3 kinase assay (LanthaScreen); settings: for JAK3 (pKi)-JAK1 (pKi): selectivity JAK3 over JAK1, difference of pKi
JAK3, sequence (P52333 whole entry): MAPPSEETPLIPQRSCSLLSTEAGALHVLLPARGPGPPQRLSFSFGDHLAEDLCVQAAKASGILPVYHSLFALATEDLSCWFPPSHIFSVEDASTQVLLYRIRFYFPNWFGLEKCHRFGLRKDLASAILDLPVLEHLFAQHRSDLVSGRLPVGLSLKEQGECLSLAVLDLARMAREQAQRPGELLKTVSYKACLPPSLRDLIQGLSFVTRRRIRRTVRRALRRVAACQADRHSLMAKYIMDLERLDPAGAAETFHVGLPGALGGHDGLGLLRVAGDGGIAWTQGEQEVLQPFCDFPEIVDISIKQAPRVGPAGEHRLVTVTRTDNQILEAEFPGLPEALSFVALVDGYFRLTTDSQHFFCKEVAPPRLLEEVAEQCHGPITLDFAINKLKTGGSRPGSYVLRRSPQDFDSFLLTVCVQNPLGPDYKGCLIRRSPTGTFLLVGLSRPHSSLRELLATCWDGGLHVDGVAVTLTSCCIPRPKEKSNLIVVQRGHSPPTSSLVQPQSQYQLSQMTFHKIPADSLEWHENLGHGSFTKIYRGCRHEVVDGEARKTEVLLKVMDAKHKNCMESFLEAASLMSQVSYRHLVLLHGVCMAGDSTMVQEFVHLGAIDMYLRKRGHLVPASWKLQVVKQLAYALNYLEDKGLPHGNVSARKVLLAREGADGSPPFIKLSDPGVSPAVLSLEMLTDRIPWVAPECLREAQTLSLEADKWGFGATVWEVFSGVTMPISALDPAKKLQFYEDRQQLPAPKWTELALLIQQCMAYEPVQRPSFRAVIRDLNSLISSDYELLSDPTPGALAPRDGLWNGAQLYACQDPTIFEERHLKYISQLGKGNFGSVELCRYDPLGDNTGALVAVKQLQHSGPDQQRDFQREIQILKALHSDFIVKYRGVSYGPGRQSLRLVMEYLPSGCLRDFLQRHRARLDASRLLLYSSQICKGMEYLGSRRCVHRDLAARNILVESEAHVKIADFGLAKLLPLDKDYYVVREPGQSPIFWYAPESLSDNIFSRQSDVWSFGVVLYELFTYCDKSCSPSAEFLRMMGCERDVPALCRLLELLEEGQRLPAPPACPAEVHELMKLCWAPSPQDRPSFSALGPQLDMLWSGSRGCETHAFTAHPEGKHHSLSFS
Summary of the method: as §1

[4] = molecular target: Tyk2 (Homo sapiens (Human), UniProt P29597); assay: Biochemical Tyk2 kinase assay (LanthaScreen)
Tyk2, sequence (P29597 whole entry): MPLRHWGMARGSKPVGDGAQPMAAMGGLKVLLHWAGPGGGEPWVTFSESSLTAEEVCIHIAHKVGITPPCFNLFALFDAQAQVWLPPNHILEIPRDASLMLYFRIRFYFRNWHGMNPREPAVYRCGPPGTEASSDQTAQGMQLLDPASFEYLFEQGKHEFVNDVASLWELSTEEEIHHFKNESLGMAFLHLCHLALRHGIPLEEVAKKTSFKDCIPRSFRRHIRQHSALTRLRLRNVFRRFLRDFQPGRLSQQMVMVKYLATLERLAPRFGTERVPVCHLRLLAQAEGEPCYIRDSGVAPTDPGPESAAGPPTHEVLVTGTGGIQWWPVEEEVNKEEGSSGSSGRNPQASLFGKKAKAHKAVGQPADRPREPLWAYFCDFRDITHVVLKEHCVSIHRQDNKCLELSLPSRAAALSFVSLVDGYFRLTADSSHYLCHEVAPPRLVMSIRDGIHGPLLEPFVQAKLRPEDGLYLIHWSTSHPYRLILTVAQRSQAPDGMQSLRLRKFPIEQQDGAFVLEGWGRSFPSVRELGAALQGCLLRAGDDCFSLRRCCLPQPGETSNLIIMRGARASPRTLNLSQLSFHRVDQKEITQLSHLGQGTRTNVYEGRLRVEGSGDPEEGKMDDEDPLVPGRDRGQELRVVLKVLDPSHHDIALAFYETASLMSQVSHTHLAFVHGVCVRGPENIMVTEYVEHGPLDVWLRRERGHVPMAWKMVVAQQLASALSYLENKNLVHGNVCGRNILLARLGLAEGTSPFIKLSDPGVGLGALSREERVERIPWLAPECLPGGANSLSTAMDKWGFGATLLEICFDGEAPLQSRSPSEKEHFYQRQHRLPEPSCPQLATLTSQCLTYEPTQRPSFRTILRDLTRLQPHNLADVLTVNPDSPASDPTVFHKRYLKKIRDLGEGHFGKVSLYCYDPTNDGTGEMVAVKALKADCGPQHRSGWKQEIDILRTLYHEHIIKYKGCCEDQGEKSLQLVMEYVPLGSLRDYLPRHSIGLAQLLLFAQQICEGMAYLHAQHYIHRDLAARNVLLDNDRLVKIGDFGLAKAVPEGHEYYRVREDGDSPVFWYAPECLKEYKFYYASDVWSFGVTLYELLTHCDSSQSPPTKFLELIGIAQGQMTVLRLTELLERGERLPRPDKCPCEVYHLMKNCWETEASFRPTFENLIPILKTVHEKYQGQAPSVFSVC
Summary of the method: as §1

[5] = system: IL-2 stimulated STAT5 phosphorylation in Tall-1 human T cell line (JAK3); assay: Cellular JAK3 potency assay: inhibition of IL-2 stimulated pSTAT5 in Tall-1 T cells; format: cell-based; settings: IL-2 stimulated pSTAT5, Tall-1 T cells
Summary of the method: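 AlphaLISA SureFire Ultra measures STAT5 Tyr694/699 phosphorylation in lysed Tall-1 human T cells. Cells were exposed to compound for 1 h at 37 °C before a 30 min IL-2 challenge (300 ng/ml final). Values are pIC50 means with standard deviation from signal-versus-concentration curves.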

[6] = system: Caco-2 cell monolayers; assay: Caco-2 permeation assay; format: in vitro ADME; settings: 5 μM, A-B direction, with Verapamil (25 μM)
Summary of the method: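 Passive A-to-B permeability with P-gp inhibited by verapamil (25 μM); compound at 5 μM, n=2. Both compartments sampled at t0 and t120 and quantified by LC-MS/MS, giving apparent permeability in cm/sec from flux, area and concentration.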

JAK1, sequence (P23458 whole entry): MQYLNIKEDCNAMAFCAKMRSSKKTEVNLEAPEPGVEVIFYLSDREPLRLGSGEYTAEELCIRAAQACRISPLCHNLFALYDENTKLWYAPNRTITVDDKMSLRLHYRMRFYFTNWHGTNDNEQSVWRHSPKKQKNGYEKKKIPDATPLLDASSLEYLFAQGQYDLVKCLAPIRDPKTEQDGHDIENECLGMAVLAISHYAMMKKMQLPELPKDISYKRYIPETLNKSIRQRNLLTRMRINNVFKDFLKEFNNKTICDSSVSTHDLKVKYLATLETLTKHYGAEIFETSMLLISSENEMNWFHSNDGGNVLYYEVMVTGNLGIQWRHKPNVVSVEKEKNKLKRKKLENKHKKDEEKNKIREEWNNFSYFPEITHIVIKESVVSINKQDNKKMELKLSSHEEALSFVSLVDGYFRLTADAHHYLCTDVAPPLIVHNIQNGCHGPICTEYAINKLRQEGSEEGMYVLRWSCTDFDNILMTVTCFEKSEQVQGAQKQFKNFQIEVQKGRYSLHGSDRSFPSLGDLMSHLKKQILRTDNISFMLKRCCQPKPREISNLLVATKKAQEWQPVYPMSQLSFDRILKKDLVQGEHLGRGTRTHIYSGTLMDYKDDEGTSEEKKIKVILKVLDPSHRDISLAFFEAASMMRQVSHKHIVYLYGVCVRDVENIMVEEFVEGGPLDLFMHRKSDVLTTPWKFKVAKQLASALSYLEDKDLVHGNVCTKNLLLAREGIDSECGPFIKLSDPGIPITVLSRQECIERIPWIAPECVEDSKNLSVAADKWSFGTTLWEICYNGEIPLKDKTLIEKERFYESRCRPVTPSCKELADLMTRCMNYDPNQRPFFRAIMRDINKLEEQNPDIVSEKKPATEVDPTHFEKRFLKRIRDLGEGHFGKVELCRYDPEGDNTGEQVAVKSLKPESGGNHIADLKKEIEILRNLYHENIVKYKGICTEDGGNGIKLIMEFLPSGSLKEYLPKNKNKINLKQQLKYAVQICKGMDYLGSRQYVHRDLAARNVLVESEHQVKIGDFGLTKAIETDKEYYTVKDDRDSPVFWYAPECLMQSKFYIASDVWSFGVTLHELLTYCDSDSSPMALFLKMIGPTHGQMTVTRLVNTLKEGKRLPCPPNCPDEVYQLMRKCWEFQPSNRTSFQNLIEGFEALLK

C=CC(=O)N1CC(CCn2c(=O)ccc3cnc(Nc4ccc(N5CCN(C(=O)OC)CC5)cc4)nc32)C1 [Example 71]
JAK 1 (pKi) [1]: E (E represents a pKi value of 7 or below (Ki of 100 nM or above))
JAK 2 (pKi) [2]: E (E represents a pKi value of 7 or below (Ki of 100 nM or above))
JAK 3 (pKi) [3]: B (B represents pKi value between 9 and 10 (Ki between 1 nM and 0.1 nM))
JAK3 (pKi)-JAK1 (pKi) [3]: A (A represents a value of 3 or above)
Tyk 2 (pKi) [4]: E (E represents a pKi value of 7 or below (Ki of 100 nM or above))
Tall-1 (pIC50) [5]: B (B represents a pC50 value between 6.7 (included) and 7.5 (IC50 between 200 nM and 32 nM))
Caco Kp [6]: B (B represents a value between 5×10^−6 and 10×10^−6 cm/sec)

C=CC(=O)N1CC(CCn2c(=O)ccc3cnc(Nc4ccc(N5CCN(C(C)=O)C[C@H]5C)cc4)nc32)C1 [Example 10, (R)-2-((4-(4-acetyl-2-methylpiperazin-1-yl)phenyl)amino)-8-(2-(1-acryloylazetidin-3-yl)ethyl)pyrido[2,3-d]pyrimidin-7(8H)-one]
JAK 1 (pKi) [1]: E (E represents a pKi value of 7 or below (Ki of 100 nM or above))
JAK 2 (pKi) [2]: E (E represents a pKi value of 7 or below (Ki of 100 nM or above))
JAK 3 (pKi) [3]: A (A represents a pKi value≥10 (Ki≤0.1 nM))
JAK3 (pKi)-JAK1 (pKi) [3]: A (A represents a value of 3 or above)
Tyk 2 (pKi) [4]: E (E represents a pKi value of 7 or below (Ki of 100 nM or above))
Tall-1 (pIC50) [5]: A (A represents a pIC50 value≥7.5 (IC50≤32 nM))
Caco Kp [6]: A (A represents a value below 5×10^−6 cm/sec)

C=CC(=O)N1CC(CCn2c(=O)ccc3cnc(Nc4ccc(N5CCCCC5)cc4)nc32)C1 [Example 143]
JAK 1 (pKi) [1]: E (E represents a pKi value of 7 or below (Ki of 100 nM or above))
JAK 2 (pKi) [2]: E (E represents a pKi value of 7 or below (Ki of 100 nM or above))
JAK 3 (pKi) [3]: A (A represents a pKi value≥10 (Ki≤0.1 nM))
JAK3 (pKi)-JAK1 (pKi) [3]: A (A represents a value of 3 or above)
Tyk 2 (pKi) [4]: E (E represents a pKi value of 7 or below (Ki of 100 nM or above))
Tall-1 (pIC50) [5]: B (B represents a pC50 value between 6.7 (included) and 7.5 (IC50 between 200 nM and 32 nM))
Caco Kp [6]: C (C represents a value between 10×10^−6 and 30×10^−6 cm/sec)

C=CC(=O)N1CC(CCn2c(=O)ccc3cnc(Nc4ccc(N5CCN(CCOCC)CC5)cc4)nc32)C1 [Example 117]
JAK 1 (pKi) [1]: E (E represents a pKi value of 7 or below (Ki of 100 nM or above))
JAK 2 (pKi) [2]: E (E represents a pKi value of 7 or below (Ki of 100 nM or above))
JAK 3 (pKi) [3]: A (A represents a pKi value≥10 (Ki≤0.1 nM))
JAK3 (pKi)-JAK1 (pKi) [3]: A (A represents a value of 3 or above)
Tyk 2 (pKi) [4]: E (E represents a pKi value of 7 or below (Ki of 100 nM or above))
Tall-1 (pIC50) [5]: A (A represents a pIC50 value≥7.5 (IC50≤32 nM))
Caco Kp [6]: C (C represents a value between 10×10^−6 and 30×10^−6 cm/sec)

C=CC(=O)N1CCN(CCn2c(=O)ccc3cnc(Nc4ccc(N5CCN(C(C)=O)CC5)cc4)nc32)[C@@H](CC)C1 [Example 185]
JAK 1 (pKi) [1]: E (E represents a pKi value of 7 or below (Ki of 100 nM or above))
JAK 2 (pKi) [2]: E (E represents a pKi value of 7 or below (Ki of 100 nM or above))
JAK 3 (pKi) [3]: A (A represents a pKi value≥10 (Ki≤0.1 nM))
JAK3 (pKi)-JAK1 (pKi) [3]: A (A represents a value of 3 or above)
Tyk 2 (pKi) [4]: E (E represents a pKi value of 7 or below (Ki of 100 nM or above))
Tall-1 (pIC50) [5]: B (B represents a pC50 value between 6.7 (included) and 7.5 (IC50 between 200 nM and 32 nM))
Caco Kp [6]: B (B represents a value between 5×10^−6 and 10×10^−6 cm/sec)

C=CC(=O)N1CCN(CCn2c(=O)ccc3cnc(Nc4ccc(N5CCN(C(=O)N(C)C)CC5)cc4)nc32)[C@@H](CC)C1 [Example 187]
JAK 1 (pKi) [1]: E (E represents a pKi value of 7 or below (Ki of 100 nM or above))
JAK 2 (pKi) [2]: E (E represents a pKi value of 7 or below (Ki of 100 nM or above))
JAK 3 (pKi) [3]: B (B represents pKi value between 9 and 10 (Ki between 1 nM and 0.1 nM))
JAK3 (pKi)-JAK1 (pKi) [3]: A (A represents a value of 3 or above)
Tyk 2 (pKi) [4]: E (E represents a pKi value of 7 or below (Ki of 100 nM or above))
Tall-1 (pIC50) [5]: B (B represents a pC50 value between 6.7 (included) and 7.5 (IC50 between 200 nM and 32 nM))
Caco Kp [6]: C (C represents a value between 10×10^−6 and 30×10^−6 cm/sec)

C=CC(=O)N1CCN(CCn2c(=O)ccc3cnc(Nc4ccc(N5CCN(C(=O)CCSC)CC5)cc4)nc32)[C@@H](CC)C1 [Example 192]
JAK 1 (pKi) [1]: E (E represents a pKi value of 7 or below (Ki of 100 nM or above))
JAK 2 (pKi) [2]: E (E represents a pKi value of 7 or below (Ki of 100 nM or above))
JAK 3 (pKi) [3]: B (B represents pKi value between 9 and 10 (Ki between 1 nM and 0.1 nM))
JAK3 (pKi)-JAK1 (pKi) [3]: A (A represents a value of 3 or above)
Tyk 2 (pKi) [4]: E (E represents a pKi value of 7 or below (Ki of 100 nM or above))
Tall-1 (pIC50) [5]: B (B represents a pC50 value between 6.7 (included) and 7.5 (IC50 between 200 nM and 32 nM))
Caco Kp [6]: C (C represents a value between 10×10^−6 and 30×10^−6 cm/sec)

C=CC(=O)N1CCN(CCn2c(=O)ccc3cnc(Nc4cnn(CC(F)F)c4)nc32)[C@@H](CC)C1 [Example 209]
JAK 1 (pKi) [1]: E (E represents a pKi value of 7 or below (Ki of 100 nM or above))
JAK 2 (pKi) [2]: E (E represents a pKi value of 7 or below (Ki of 100 nM or above))
JAK 3 (pKi) [3]: B (B represents pKi value between 9 and 10 (Ki between 1 nM and 0.1 nM))
JAK3 (pKi)-JAK1 (pKi) [3]: A (A represents a value of 3 or above)
Tyk 2 (pKi) [4]: E (E represents a pKi value of 7 or below (Ki of 100 nM or above))
Tall-1 (pIC50) [5]: B (B represents a pC50 value between 6.7 (included) and 7.5 (IC50 between 200 nM and 32 nM))
Caco Kp [6]: A (A represents a value below 5×10^−6 cm/sec)

C=CC(=O)N1CC(CCn2c(=O)ccc3cnc(Nc4cnn(CCF)c4)nc32)C1 [Example 63]
JAK 1 (pKi) [1]: E (E represents a pKi value of 7 or below (Ki of 100 nM or above))
JAK 2 (pKi) [2]: E (E represents a pKi value of 7 or below (Ki of 100 nM or above))
JAK 3 (pKi) [3]: B (B represents pKi value between 9 and 10 (Ki between 1 nM and 0.1 nM))
JAK3 (pKi)-JAK1 (pKi) [3]: A (A represents a value of 3 or above)
Tyk 2 (pKi) [4]: E (E represents a pKi value of 7 or below (Ki of 100 nM or above))
Tall-1 (pIC50) [5]: B (B represents a pC50 value between 6.7 (included) and 7.5 (IC50 between 200 nM and 32 nM))
Caco Kp [6]: A (A represents a value below 5×10^−6 cm/sec)

C=CC(=O)N1CC(CCn2c(=O)ccc3cnc(Nc4ccc(N5CCN(C)CC5)cc4F)nc32)C1 [Example 141]
JAK 1 (pKi) [1]: E (E represents a pKi value of 7 or below (Ki of 100 nM or above))
JAK 2 (pKi) [2]: E (E represents a pKi value of 7 or below (Ki of 100 nM or above))
JAK 3 (pKi) [3]: B (B represents pKi value between 9 and 10 (Ki between 1 nM and 0.1 nM))
JAK3 (pKi)-JAK1 (pKi) [3]: A (A represents a value of 3 or above)
Tyk 2 (pKi) [4]: E (E represents a pKi value of 7 or below (Ki of 100 nM or above))
Tall-1 (pIC50) [5]: B (B represents a pC50 value between 6.7 (included) and 7.5 (IC50 between 200 nM and 32 nM))
Caco Kp [6]: C (C represents a value between 10×10^−6 and 30×10^−6 cm/sec)

C=CC(=O)N1CC(CCn2c(=O)ccc3cnc(Nc4ccc(N5CCN(C)CC5)cn4)nc32)C1 [Example 137]
JAK 1 (pKi) [1]: E (E represents a pKi value of 7 or below (Ki of 100 nM or above))
JAK 2 (pKi) [2]: E (E represents a pKi value of 7 or below (Ki of 100 nM or above))
JAK 3 (pKi) [3]: B (B represents pKi value between 9 and 10 (Ki between 1 nM and 0.1 nM))
JAK3 (pKi)-JAK1 (pKi) [3]: A (A represents a value of 3 or above)
Tyk 2 (pKi) [4]: E (E represents a pKi value of 7 or below (Ki of 100 nM or above))
Tall-1 (pIC50) [5]: B (B represents a pC50 value between 6.7 (included) and 7.5 (IC50 between 200 nM and 32 nM))
Caco Kp [6]: A (A represents a value below 5×10^−6 cm/sec)

C=CC(=O)N1CC(CCn2c(=O)ccc3cnc(Nc4cccc(CN(C)C)c4)nc32)C1 [Example 90]
JAK 1 (pKi) [1]: E (E represents a pKi value of 7 or below (Ki of 100 nM or above))
JAK 2 (pKi) [2]: E (E represents a pKi value of 7 or below (Ki of 100 nM or above))
JAK 3 (pKi) [3]: B (B represents pKi value between 9 and 10 (Ki between 1 nM and 0.1 nM))
JAK3 (pKi)-JAK1 (pKi) [3]: A (A represents a value of 3 or above)
Tyk 2 (pKi) [4]: E (E represents a pKi value of 7 or below (Ki of 100 nM or above))
Tall-1 (pIC50) [5]: B (B represents a pC50 value between 6.7 (included) and 7.5 (IC50 between 200 nM and 32 nM))
Caco Kp [6]: A (A represents a value below 5×10^−6 cm/sec)

C=CC(=O)N1CCN(CCn2c(=O)ccc3cnc(Nc4cnn(C)c4)nc32)CC12CC2 [Example 32]
JAK 1 (pKi) [1]: E (E represents a pKi value of 7 or below (Ki of 100 nM or above))
JAK 2 (pKi) [2]: E (E represents a pKi value of 7 or below (Ki of 100 nM or above))
JAK 3 (pKi) [3]: B (B represents pKi value between 9 and 10 (Ki between 1 nM and 0.1 nM))
JAK3 (pKi)-JAK1 (pKi) [3]: A (A represents a value of 3 or above)
Tyk 2 (pKi) [4]: E (E represents a pKi value of 7 or below (Ki of 100 nM or above))
Tall-1 (pIC50) [5]: B (B represents a pC50 value between 6.7 (included) and 7.5 (IC50 between 200 nM and 32 nM))
Caco Kp [6]: B (B represents a value between 5×10^−6 and 10×10^−6 cm/sec)
